# Experiments:
# Wistar rats = experiment: elevated plus-maze test on rats (anxiolytic effect); assay type: in vivo, rat; conditions: 30 min after administration, within 5 minutes
# Description: The anxiolytic effect of the compounds was evaluated using an elevated plus-maze test on rats.
# The elevated plus-maze consists of two closed arms and two open arms cross each other with length, width and height respectively of 50 cm, 10 cm and 40 cm.
# The central connecting area is 10 cm (length)×10 cm (width), and the maze is 50 cm above the ground, placed in the darker side of the fluorescent lamp and 1 meter away from the lamp. Wistar rats were randomly divided into groups with 5 per group, and the rats were fasted but not deprived of water for 12 hours; The test compound was formulated with 0.5% sodium carboxymethylcellulose into a suspension of certain concentration for intragastric administration. Thirty minutes after administration, the rats were placed in the central connecting area of the maze with the heads facing the direction of the open arms. Then the dwell time of the animals in the open arms within 5 minutes was recorded.
# [1] = subacute toxicity, 7-day intragastric administration: blood biochemical and hematological indicators; assay type: in vivo, rat; conditions: 60 mg/kg intragastric once a day for 7 days; for plasma ALT compared with control group (Solvent group) / plasma AST compared with control group (Solvent group): SD rats, result in words; for ALT / AST: male Sprague-Dawley rats
# Description: (§1) Male Sprague-Dawley rats (220-240 g), were randomly divided into groups with 5 per group; The test compound was formulated with 0.5% sodium carboxymethylcellulose into a preparation of a concentration of 60 mg/kg for intragastric administration once a day and continuously for 7 days. After the last administration, the SD rats were fasted but not deprived of water for 12 hours, and anesthetized. Their blood samples were obtained from the abdominal aortas and made to serum samples for determination of blood biochemical indicators and immunological indicators; EDTA Anticoagulated blood was prepared for general blood routine determination. Referring to the method of the literature (En Li, et al. Effect of buagafuran on liver microsomal cytochrome P450 in rats. J Asian Natural Products Research. 2010; 12: 371-381.), liver microsome was prepared from the liver taken, and the activity of CYP isoenzyme was determined using a probe substrate. The relative enzymatic activity of the test compound was calculated by taking the activity of the solvent group as 1.
# CYP1A1 = experiment: induction of liver metabolic enzyme, liver microsome probe substrate activity after 7-day administration; assay type: in vivo, rat; conditions: 60 mg/kg intragastric once a day for 7 days; for Relative enzyme activity CYP1A1: rat liver microsome, solvent group = 1; for activity of metabolic enzyme CYP1A1 in the liver compared with solvent group: result in words
# Description: as §1
# CYP2E1 [2] = experiment: as above; assay type: in vivo, rat; conditions: 60 mg/kg intragastric once a day for 7 days; for Relative enzyme activity CYP2E1: rat liver microsome, solvent group = 1; for activity of metabolic enzyme CYP2E1 in the liver compared with solvent group: result in words
# Description: as §1
# [3] = background statement; cited from earlier work
# [4] = background statement; cited from earlier work; remark: listed apart in the source
# CYP1A2 = conditions: literature, rats; cited from earlier work
# CYP2E1 [5] = conditions: literature, rats; cited from earlier work
SMILES,dwell time in the open arms (Wistar rats; 1 mg/kg intragastric) [s],dwell time in the open arms (Wistar rats; 2 mg/kg intragastric) [s],dwell time in the open arms (Wistar rats; 4 mg/kg intragastric) [s],plasma ALT compared with control group (Solvent group) [1],plasma AST compared with control group (Solvent group) [1],ALT [1] [U/L],AST [1] [U/L],Relative enzyme activity CYP1A1 (CYP1A1),activity of metabolic enzyme CYP1A1 in the liver compared with solvent group (CYP1A1),Relative enzyme activity CYP2E1 (CYP2E1 [2]),activity of metabolic enzyme CYP2E1 in the liver compared with solvent group (CYP2E1 [2]),anxiolytic activity [3],oral bioavailability [4],induction effect on liver cytochrome P450 metabolic enzyme CYP1A2 (CYP1A2),induction effect on liver cytochrome P450 metabolic enzyme CYP2E1 (CYP2E1 [5])
"CCCCC1=CCC[C@@]2(C)CC[C@@H]3C[C@]12OC3(C)C [BAF, 4-butyl-α-agarofuran, reference compound]",26.7 ± 27.0,45.2 ± 39.7,69.0 ± 49.0,significantly increased,significantly increased,189.0,258.7,3.8,significantly increased,1.7,significantly increased,significant anxiolytic activity,low,significant induction effect,significant induction effect
"[2H]C1([2H])C=C(CCCC)[C@@]23C[C@@H](CC[C@]2(C)C1)C(C)(C)O3 [I-1, d2-BAF]",48.6 ± 21.7,68.4 ± 30.8,47.5 ± 23.6,no significant differences,no significant differences,116.1,163.9,1.7,not significantly different,1.2,not significantly different,,,,
"[2H]C1=C(CCCC)[C@@]23C[C@@H](CC[C@]2(C)CC1([2H])[2H])C(C)(C)O3 [I-2, d3-BAF]",45.6 ± 19.1,69.7 ± 29.8,39.0 ± 25.7,no significant differences,no significant differences,74.0,115.4,1.4,not significantly different,1.0,not significantly different,,,,
"[2H]C1([2H])C=C(CCCC)[C@]23OC(C)(C)[C@H](CC[C@]2(C)C1)C3([2H])[2H] [I-3, d4-BAF]",52.5 ± 26.0,67.2 ± 22.0,42.7 ± 25.1,,,,,,,,,,,,
"[2H]C([2H])([2H])C([2H])([2H])C([2H])([2H])C([2H])([2H])C1=CCC[C@@]2(C)CC[C@@H]3C[C@]12OC3(C)C [I-5, d9-BAF]",72.0 ± 15.8,71.2 ± 15.3,76.5 ± 16.0,no significant differences,no significant differences,56.6,137.2,1.3,not significantly different,1.2,not significantly different,,,,
"[2H]C1=C(C([2H])([2H])C([2H])([2H])C([2H])([2H])C([2H])([2H])[2H])[C@@]23C[C@@H](CC[C@]2(C)CC1)C(C)(C)O3 [I-6, d10-BAF]",73.3 ± 17.6,71.4 ± 19.1,66.3 ± 19.6,,,,,,,,,,,,
"[2H]C1([2H])C=C(C([2H])([2H])C([2H])([2H])C([2H])([2H])C([2H])([2H])[2H])[C@@]23C[C@@H](CC[C@]2(C)C1)C(C)(C)O3 [I-7, d11-BAF]",77.5 ± 23.3,72.6 ± 18.6,73.8 ± 11.0,no significant differences,no significant differences,48.7,107.7,1.1,not significantly different,0.9,not significantly different,,,,
"[2H]C1=C(C([2H])([2H])C([2H])([2H])C([2H])([2H])C([2H])([2H])[2H])[C@@]23C[C@@H](CC[C@]2(C)CC1([2H])[2H])C(C)(C)O3 [I-8, d12-BAF]",70.7 ± 23.2,76.9 ± 14.4,72.3 ± 17.8,,,,,,,,,,,,

# From patent US11358944B2, “Anxiolytic deuterated compound and medical use thereof” (BEIJING JUNKE HUAYUAN MED TECH CO., LTD., priority 2017, dated 2022)
